Measured values as given in US7560479B2 (priority 2003, dated 2009).

How the values were obtained:
[1] = target: T1, M2 muscarinic receptor subtype (Rattus norvegicus, UniProt P10980); assay: biochemical; type: binding
T1 construct: Submandibular glands and heart were isolated and placed in ice cold homogenising buffer; from tissue; host or cells: rat heart membrane homogenate
T1 sequence (P10980 1-466): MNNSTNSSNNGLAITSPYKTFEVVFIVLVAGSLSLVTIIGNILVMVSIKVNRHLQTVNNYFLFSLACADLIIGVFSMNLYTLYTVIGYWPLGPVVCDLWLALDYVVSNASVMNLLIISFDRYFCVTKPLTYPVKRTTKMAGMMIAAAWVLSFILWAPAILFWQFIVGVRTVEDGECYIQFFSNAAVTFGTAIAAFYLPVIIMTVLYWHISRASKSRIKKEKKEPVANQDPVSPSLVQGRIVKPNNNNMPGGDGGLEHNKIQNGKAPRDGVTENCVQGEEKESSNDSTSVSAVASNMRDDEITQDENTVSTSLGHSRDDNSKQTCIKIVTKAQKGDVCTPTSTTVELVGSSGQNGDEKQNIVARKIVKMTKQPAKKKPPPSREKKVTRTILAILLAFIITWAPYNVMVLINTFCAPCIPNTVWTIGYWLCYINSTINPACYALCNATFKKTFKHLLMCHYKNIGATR

[2] = target: T2, M3 muscarinic receptor subtype (Rattus norvegicus, UniProt P08483); assay: biochemical; type: binding
T2 construct: Submandibular glands and heart were isolated and placed in ice cold homogenising buffer; from tissue; host or cells: rat submandibular gland membrane homogenate
T2 sequence (P08483 whole entry): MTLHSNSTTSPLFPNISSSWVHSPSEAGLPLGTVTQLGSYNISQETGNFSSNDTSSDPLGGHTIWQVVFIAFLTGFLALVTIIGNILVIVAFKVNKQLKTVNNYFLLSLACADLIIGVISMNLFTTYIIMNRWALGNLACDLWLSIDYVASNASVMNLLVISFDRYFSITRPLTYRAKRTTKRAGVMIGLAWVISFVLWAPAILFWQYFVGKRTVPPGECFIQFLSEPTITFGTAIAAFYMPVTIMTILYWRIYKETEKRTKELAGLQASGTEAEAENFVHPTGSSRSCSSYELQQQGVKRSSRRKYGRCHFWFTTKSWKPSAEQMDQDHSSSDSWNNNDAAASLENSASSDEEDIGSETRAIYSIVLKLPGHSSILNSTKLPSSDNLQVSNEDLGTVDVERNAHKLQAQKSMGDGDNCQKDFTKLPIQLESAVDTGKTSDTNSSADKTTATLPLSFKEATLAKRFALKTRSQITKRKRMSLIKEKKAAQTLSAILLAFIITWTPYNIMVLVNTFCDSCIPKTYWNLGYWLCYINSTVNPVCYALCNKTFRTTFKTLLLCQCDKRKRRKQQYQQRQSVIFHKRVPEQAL

isolated rat bladder = assay: tissue or blood; type: cell-based; details: read-out: Functional Assay pkB

Compound: O=C(N[C@H]1[C@@H]2CN(CCc3ccc4c(c3)OCO4)C[C@@H]21)[C@](O)(c1ccccc1)C1CCC(F)(F)C1 (stereo partly drawn) [Compound 9, (2R)-(1α, 5α, 6α)-6-N-[3-(2-(3,4-methylenedioxyphenyl)ethyl]-3-azabicyclo[3.1.0]-hexyl]-2-[(1R or 1S)-3,3-difluorocyclopentyl]-2-hydroxy-2-phenylacetamide]
- Ki [1]: 4270 nM
- Ki [2]: 79.4 nM

Compound: O=C(N[C@H]1[C@@H]2CN(CCc3ccc4c(c3)OCO4)C[C@@H]21)[C@@](O)(c1ccccc1)C1CCC(F)C1 (stereo partly drawn) [Compound 11, (2S)-(1α, 5α, 6α)-6-N-[3-(2-(3,4-methylenedioxyphenyl)ethyl]-3-azabicyclo[3.1.0]-hexyl]-2-[(1R or 1S, 3R or 3S)-3-fluorocyclopentyl]-2-hydroxy-2-phenylacetamide]
- Ki [1]: 6310 nM
- Ki [2]: 63.1 nM

Compound: CC(C)=CCCN1CC2C(C1)C2NC(=O)C(O)(c1ccccc1)C1CCC(F)(F)C1 (single isomer, unassigned) [Compound 14, (2R)-(1α, 5α, 6α)-6-N-[3-(4-methyl-3-pentenyl)-3-azabicyclo[3.1.0]-hexyl]-2-[(1R or 1S)-3,3-difluorocyclopentyl]-2-hydroxy-2-phenylacetamide]
- Ki [1]: > 10000 nM
- Ki [2]: 1580 nM
- Kb (isolated rat bladder): 132 nM

Compound: CC(C)=CCCN1C[C@@H]2[C@H](C1)[C@H]2NC(=O)[C@@](O)(c1ccccc1)C1CCC(F)(F)C1 (single isomer, unassigned) [Compound 13B, (2S)-(1α, 5α, 6α)-6-N-[3-(4-methyl-3-pentenyl)-3-azabicyclo[3.1.0]-hexyl-2-[(1R or 1S)-3,3-difluorocyclopentyl]-2-hydroxy-2-phenylacetamide]
- Ki [1]: > 10000 nM
- Ki [2]: 2000 nM
- Kb (isolated rat bladder): 67.6 nM
